According to patent US20220378901A1, “APPLICATION OF PSEUDOMONAS AERUGINOSA VACCINE IN RESPIRATORY DISEASE” (Sichuan University, priority 2019, published 2022):

Assays:
SKLBPA1 [1] = assay: Immunoprotection against SKLBPA1 pulmonary infection; assay type: in vivo, Pseudomonas aeruginosa
Source text: . […] One week after the last immunization, SKLBPA1 (which is the homologous strain of vaccine bacteria) and clinical carbapenem-resistant Pseudomonas aeruginosa (CRPA) C58 (from sputum, the drug sensitivity information of clinical C58 is shown in Table 7, which is different from the serotype of vaccine bacteria) are used for challenge.

SKLBPA1 [2] = assay: Efficacy against infection of vaccine alone or in combination with antibiotics; details: 24 h after infection; no immunization; ATM 4 times (2 h, 4 h, 6 h, 8 h, 100 mg/kg/time); Model 24 h 6.86 ± 0.45
Method: The mice in the immunization group are subcutaneously immunized with SKLB-V1 in the groin at 1×10^7 CFU/100 μL, with 3 injections. […] 24 h after the last immunization, the bacteria SKLBPA1 are used for challenge.

Structure (SMILES): C[C@H]1[C@H](NC(=O)/C(=N\OC(C)(C)C(=O)O)c2csc(N)n2)C(=O)N1S(=O)(=O)O [Aztreonam, aztreonam]
- Bacterial Load log10CFU (SKLBPA1 [1]; in vivo): 4.31 ± 1.27 log10CFU
- Bacterial Load log10CFU (SKLBPA1 [1]; mice lung tissue, 4 h after infection, SKLB-V1 1×10^7 CFU s.c. at 0, 1st, 2nd weeks, aztreonam 100 mg/kg i.p. from 2 h, model 4.50 ± 1.05): 4.68 ± 0.22 log10CFU
- Lung LOG10CFU (SKLBPA1 [2]): 4.11 ± 0.44 LOG10CFU
